Assay results reported in US9771351B2, “Wnt signaling inhibitor” (KYOWA HAKKO KIRIN CO., LTD., priority 2013, dated 2017).

Experiments:
[1] = molecular target: T1, tankyrase-2 (Homo sapiens, UniProt Q9H2K2); experiment: Tankyrase-2 enzyme inhibition test (Tankyrase-2 Chemiluminescent Assay Kit); assay type: biochemical; details: autoribosylation of GST-tankyrase-2 fusion protein, chemiluminescence
T1 construct: purchased BPS Bioscience, Inc. 80566
T1 sequence (Q9H2K2 1-1166): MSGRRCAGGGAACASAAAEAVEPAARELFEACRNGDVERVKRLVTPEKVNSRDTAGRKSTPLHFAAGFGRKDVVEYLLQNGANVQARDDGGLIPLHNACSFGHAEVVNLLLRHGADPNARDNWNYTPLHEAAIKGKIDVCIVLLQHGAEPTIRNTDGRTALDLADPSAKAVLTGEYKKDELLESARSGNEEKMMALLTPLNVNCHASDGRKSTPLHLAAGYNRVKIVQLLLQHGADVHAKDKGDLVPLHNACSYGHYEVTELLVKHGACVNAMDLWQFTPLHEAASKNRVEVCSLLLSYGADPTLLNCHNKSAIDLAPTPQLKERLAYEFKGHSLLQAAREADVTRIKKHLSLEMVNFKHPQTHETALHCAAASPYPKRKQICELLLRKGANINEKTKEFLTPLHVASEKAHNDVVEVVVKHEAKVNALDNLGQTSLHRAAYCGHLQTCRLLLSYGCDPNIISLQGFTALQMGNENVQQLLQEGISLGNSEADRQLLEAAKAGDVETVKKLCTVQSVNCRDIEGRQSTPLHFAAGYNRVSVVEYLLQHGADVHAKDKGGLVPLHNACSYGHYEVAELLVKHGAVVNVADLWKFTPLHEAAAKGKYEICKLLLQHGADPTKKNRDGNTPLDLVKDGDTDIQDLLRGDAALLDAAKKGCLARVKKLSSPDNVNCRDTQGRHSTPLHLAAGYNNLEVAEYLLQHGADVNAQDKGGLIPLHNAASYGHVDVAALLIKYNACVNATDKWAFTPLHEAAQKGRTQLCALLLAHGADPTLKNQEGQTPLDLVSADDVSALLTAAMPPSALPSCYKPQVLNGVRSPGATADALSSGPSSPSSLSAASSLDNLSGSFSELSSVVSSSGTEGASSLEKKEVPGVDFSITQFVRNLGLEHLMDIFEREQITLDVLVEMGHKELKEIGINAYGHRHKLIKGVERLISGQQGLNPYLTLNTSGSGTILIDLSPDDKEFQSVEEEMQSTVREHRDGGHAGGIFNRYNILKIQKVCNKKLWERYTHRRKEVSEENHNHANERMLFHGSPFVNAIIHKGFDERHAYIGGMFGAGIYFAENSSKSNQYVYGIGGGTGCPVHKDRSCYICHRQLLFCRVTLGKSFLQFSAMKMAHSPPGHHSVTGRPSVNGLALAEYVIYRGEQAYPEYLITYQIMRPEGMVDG
Procedure: Test Example 2: Tankyrase-2 Enzyme Inhibition Test
The enzyme activity of tankyrase-2 was evaluated using Tankyrase-2 Chemiluminescent Assay Kit (BPS Bioscience, Inc., Catalog No. 80566). The Tankyrase-2 Chemiluminescent Assay Kit is a kit for evaluating the enzyme activity of tankyrase-2 using autoribosylation of glutathione-S-transferase (GST)-tankyrase-2 fusion protein as an index. All the experimental materials except for PBS (PBST) buffer containing phosphate-buffered saline (PBS) and 0.05% Tween 20 are all included in the kit. The GST-tankyrase-2 enzyme diluted with 50 μL of 1× tankyrase buffer was added to the wells of a 96-well plate coated with glutathione. After the plate was left to stand overnight at 4° C., the plate was washed 3 times with the PBST buffer. 150 μL of blocking buffer was added thereto, and the plate was left to stand at room temperature for 30 minutes to block the wells. The plate was washed 3 times with the PBST buffer. Before the ribosylation reaction, an assay mixture containing a biotinylated substrate and a test compound diluted with 1× tankyrase buffer were mixed, whereby a reaction mixture was prepared. In order to start the ribosylation reaction, 50 μL of the reaction mixture was added to the wells. In a blank well, 1× tankyrase buffer was added in place of the reaction mixture containing a biotinylated substrate. The plate was left to stand at 30° C. for 1 hour. After the reaction, the plate was washed 3 times with the PBST buffer. Streptavidin-horseradish peroxidase (HRP) was diluted to 50-fold with the blocking buffer. The diluted streptavidin-HRP was added to the wells, and the plate was left to stand at room temperature for 30 minutes. The plate was washed 3 times with the PBST buffer. Immediately before use, 50 μL of the HRP chemiluminescent substrate A and 50 μL of the HRP chemiluminescent substrate B were mixed and 100 μL of the resulting mixture was added to the wells. The chemiluminescence was measured using a chemiluminescence measuring apparatus. The inhibition ratio was obtained according to the following formula 2. [Math. 2] Inhibition ratio (%)=100−{(chemiluminescence intensity when test compound was added)−(chemiluminescence intensity of blank)}/{(chemiluminescence intensity of control)−(chemiluminescence intensity of blank)}×100 Formula 2

[2] = tested on: T-cell factor (TCF)-luciferase reporter using Wnt pathway as index; experiment: Inhibitory activity against TCF-luciferase reporter using Wnt pathway as index (DLD-1/TCF-Luc cells); assay type: cell-based, human; details: Homo sapiens; 1 μmol/L; DLD-1/TCF-Luc cells; luciferase activity after 18 hours; read-out: Inhibition ratio (%) at 1 μmol/L
Method in brief: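 Human colorectal DLD-1 cells stably carrying a TCF-responsive luciferase reporter (pGL4.27) were exposed to test compound for 18 h at 37 °C. Luciferase luminescence read; % inhibition calculated relative to control and blank wells, reported at 1 μmol/L.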

Inhibition ratio (%) at 1 μmol/L [1]: 95%
SMILES: COc1cc2ncnc(N3CCC(CN4Cc5ccccc5N(c5ccc(F)c(C#N)c5)C4=O)CC3)c2cc1OC [Compound 7, 5-(3-{[1-(6,7-Dimethoxyquinazolin-4-yl)piperidin-4-yl]methyl}-2-oxo-3,4-dihydroquinazolin-1(2H)-yl)-2-fluorobenzonitrile]
inhibition at 1 µM [2]: 76%
